Test results taken from patent publication US8609836B2, “4-aryl-2-anilino-pyrimidines” (Janssen Pharmaceutica NV, priority 2008, dated 2013).

What was measured:
[1] = tested on: H1299; assay: Cellular proliferation assay (Alamar blue), H1299; format: cell-based; details: Homo sapiens, NCI-H1299; 10% FCS; 72 hours with compound; Alamar blue 4 h
In short: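 This proliferation assay on NCI-H1299 cells used an initial 24-hour compound-free incubation after seeding, followed by 72 hours of compound treatment with 10% FCS serum at 37° C. and 5% (v/v) CO2. Viable cells were quantified by a 4 h Alamar blue incubation and fluorescent plate reading at 544 nm/590 nm, and effects were expressed relative to control cells.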

[2] = target: PLK1 T210D (h) (Homo sapiens, UniProt P53350, T210D); assay: PLK1 human kinase inhibition, SPA; format: biochemical; details: read-out: PLK1 pIC50 (converted)
In short: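 Radiometric SPA with PLK1 T210D (0.125 ng/ml) in 50 mM Hepes pH 8.0, 2 mM MnCl2, 1 mM DTT, 2 μM biotinylated peptide, 0.1 μM ATP plus 2 nM [γ-33P]ATP. 40 min at room temperature, EDTA stop. Phosphorylated substrate captured on streptavidin PVT beads, scintillation imaged.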

[3] = target: GSK3β (h) (Homo sapiens, UniProt P49841); assay: GSK-3β human kinase inhibition, SPA; format: biochemical; details: read-out: GSK3b pIC50 (converted)
In short: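 Scintillation proximity assay: GSK3β (1 μg/ml) with 1 μM biotinylated peptide, 1 μM ATP plus [γ-33P]ATP in Tris pH 7.4, MgCl2, DTT. 60 min at room temperature, stopped with EDTA and streptavidin PVT beads; phosphorylation read by Leadseeker imaging.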

[4] = tested on: A2780; assay: Cellular proliferation assay (Alamar blue), A2780; format: cell-based; details: Homo sapiens, 10% FCS, 72 hours with compound, Alamar blue 24 h, read-out: A2780 (cellular proliferation assay, Table 4) (converted)
In short: (§1)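 24 h seeding without compound, 10% FCS, 37° C/5% CO2; 72 h compound; Alamar blue (resazurin 9 μg/ml, ferro-/ferricyanide 90 μM) 4 h HCT-116, 6 h U87-MG, 24 h A2780/MDA-MB-231; fluorescence 544/590 nm vs control cells.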

[5] = target: CDK1/CyclinB (h) (Homo sapiens, UniProt P06493); assay: CDK1/CyclinB human kinase inhibition, Invitrogen's FRET assay (Z'lyte); format: biochemical; details: read-out: CDK1 pIC50 (converted)
In short: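 Z'lyte FRET assay: human CDK1/CyclinB (0.2 μg/ml) with 2 μM Ser/Thr peptide 12 and 10 μM ATP in 50 mM Hepes pH 7.5, MgCl2, EGTA, Brij-35, 60 min at room temperature. Protease development 60 min, then emission ratio 460/538 nm read with excitation at 390 nm.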

[6] = target: PLK3 (h) (Homo sapiens, UniProt Q9H4B4); assay: PLK3 human kinase inhibition, SPA; format: biochemical; details: read-out: PLK3 pIC50 (converted)
In short: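 SPA: PLK3 (h) at 30 μg/ml with 2 μM biotinylated peptide, 0.1 μM ATP plus 2 nM [γ-33P]ATP in 50 mM Hepes pH 8.0, 2 mM MnCl2 and 1 mM DTT. Incubated 20 min at room temperature, then stopped with EDTA and streptavidin PVT beads. Scintillation imaged on Leadseeker.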

[7] = tested on: U87-MG; assay: Cellular proliferation assay (Alamar blue), U87-MG; format: cell-based; details: Homo sapiens, U-87 MG; 10% FCS; 72 hours with compound; Alamar blue 6 h; read-out: U87-MG (cellular proliferation assay, Table 4) (converted)
In short: as §1

[8] = target: AuroraB (h) (Homo sapiens, UniProt Q96GD4); assay: Aurora-B human kinase inhibition, SPA; format: biochemical; details: read-out: AuroraB pIC50 (converted)
In short: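 SPA with biotinylated peptide (3 μM) in 60 mM Hepes pH 7.5, Mg/Mn 3 mM each, 0.5 μM ATP plus [γ-33P]ATP, AuroraB at 0.5 μg/ml. The reaction runs 60 min at room temperature and is stopped with EDTA and streptavidin PVT beads. 33P-substrate is read by scintillation imaging.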

[9] = tested on: HCT-116; assay: Cellular proliferation assay (Alamar blue), HCT-116; format: cell-based; details: Homo sapiens, 10% FCS, 72 hours with compound, Alamar blue 4 h
In short: as §1

GSK3β (h), sequence (P49841 whole entry): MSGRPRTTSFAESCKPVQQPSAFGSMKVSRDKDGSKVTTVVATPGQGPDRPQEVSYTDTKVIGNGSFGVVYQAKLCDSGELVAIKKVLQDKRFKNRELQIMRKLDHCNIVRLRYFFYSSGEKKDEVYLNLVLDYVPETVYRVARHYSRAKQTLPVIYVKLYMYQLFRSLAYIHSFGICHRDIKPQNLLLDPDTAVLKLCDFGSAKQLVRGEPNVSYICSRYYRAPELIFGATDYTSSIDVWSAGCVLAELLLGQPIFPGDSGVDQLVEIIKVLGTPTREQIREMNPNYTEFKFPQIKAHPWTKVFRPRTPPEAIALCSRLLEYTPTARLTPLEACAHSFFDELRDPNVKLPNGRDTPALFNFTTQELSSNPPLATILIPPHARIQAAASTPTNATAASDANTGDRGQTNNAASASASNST
AuroraB (h), sequence (Q96GD4 whole entry): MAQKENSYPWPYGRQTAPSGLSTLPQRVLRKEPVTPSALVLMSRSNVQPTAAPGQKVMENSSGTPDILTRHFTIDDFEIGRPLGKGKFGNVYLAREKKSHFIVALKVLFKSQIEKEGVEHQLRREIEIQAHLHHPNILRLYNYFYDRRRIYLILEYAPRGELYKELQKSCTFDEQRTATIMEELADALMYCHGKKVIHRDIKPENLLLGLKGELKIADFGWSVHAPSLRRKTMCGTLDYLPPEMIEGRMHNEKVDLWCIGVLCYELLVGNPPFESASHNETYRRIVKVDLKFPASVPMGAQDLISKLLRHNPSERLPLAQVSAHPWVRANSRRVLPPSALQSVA
CDK1/CyclinB (h), sequence (P06493 whole entry): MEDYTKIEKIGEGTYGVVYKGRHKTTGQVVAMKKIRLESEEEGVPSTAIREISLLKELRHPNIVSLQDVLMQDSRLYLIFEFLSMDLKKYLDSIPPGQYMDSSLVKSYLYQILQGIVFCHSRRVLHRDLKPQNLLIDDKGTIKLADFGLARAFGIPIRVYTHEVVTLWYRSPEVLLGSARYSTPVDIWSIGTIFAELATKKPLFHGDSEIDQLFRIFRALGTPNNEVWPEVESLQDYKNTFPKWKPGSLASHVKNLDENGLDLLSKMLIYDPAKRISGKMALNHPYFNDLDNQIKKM
CDK1/CyclinB (h), sequence (P14635 whole entry partner): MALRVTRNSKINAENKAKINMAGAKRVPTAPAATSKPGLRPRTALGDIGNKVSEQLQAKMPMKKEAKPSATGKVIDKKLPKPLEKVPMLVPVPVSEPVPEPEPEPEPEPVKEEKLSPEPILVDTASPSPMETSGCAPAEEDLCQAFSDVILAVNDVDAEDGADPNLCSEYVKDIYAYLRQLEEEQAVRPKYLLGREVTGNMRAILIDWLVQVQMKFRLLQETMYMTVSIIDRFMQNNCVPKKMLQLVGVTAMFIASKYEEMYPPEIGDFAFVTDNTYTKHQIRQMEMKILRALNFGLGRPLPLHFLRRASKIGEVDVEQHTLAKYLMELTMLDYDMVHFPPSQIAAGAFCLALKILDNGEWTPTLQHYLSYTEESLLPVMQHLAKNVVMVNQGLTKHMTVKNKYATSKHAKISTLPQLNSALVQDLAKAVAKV
PLK1 T210D (h), sequence (P53350 whole entry T210D): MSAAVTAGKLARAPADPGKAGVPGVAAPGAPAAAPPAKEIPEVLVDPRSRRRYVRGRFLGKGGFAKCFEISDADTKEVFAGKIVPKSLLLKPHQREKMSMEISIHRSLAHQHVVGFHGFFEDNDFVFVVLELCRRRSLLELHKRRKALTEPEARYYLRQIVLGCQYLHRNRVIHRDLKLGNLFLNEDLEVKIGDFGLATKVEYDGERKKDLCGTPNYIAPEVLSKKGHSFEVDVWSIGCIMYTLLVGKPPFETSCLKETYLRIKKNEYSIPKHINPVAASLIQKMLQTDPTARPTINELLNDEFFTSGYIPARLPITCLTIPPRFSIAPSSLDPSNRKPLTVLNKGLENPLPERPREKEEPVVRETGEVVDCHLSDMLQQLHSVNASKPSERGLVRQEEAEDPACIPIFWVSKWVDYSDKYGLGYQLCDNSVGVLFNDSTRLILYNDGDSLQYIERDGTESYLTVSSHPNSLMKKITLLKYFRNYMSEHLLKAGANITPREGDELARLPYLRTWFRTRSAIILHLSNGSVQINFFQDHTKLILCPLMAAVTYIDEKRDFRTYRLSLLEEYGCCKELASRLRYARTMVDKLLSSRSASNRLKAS
PLK3 (h), sequence (Q9H4B4 whole entry): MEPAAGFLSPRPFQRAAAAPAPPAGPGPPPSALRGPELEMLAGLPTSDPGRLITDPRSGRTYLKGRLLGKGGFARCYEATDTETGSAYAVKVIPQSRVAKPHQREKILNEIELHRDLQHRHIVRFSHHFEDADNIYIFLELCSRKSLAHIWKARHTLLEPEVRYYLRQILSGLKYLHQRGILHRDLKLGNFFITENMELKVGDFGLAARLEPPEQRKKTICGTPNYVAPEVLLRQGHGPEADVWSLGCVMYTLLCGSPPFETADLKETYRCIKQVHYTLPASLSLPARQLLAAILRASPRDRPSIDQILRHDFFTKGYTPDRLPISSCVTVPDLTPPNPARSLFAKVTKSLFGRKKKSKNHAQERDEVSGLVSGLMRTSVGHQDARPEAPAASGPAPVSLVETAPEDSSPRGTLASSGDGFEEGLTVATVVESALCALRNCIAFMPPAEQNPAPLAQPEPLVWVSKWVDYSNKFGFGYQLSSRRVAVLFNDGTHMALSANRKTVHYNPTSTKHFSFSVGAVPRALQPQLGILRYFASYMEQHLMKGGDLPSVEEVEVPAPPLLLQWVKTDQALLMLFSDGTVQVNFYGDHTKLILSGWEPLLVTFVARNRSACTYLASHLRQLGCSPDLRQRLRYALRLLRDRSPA

Compound | IC50 [1] | IC50 [2] | IC50 [3] | IC50 [4] | IC50 [5] | IC50 [6] | IC50 [7] | IC50 [8] | IC50 [9]
C[C@H]1NCc2cc(ccc2N2CCOCC2)Nc2nccc(n2)-c2ccc(cc2)OCCCNC1=O [Compound 86] | > 10 µM | > 10 µM | 0.0692 µM | > 10 µM | > 10 µM | > 10 µM | > 10 µM | 10.5 µM | > 10 µM
COCCNCc1cc2cc(c1)Nc1nccc(n1)-c1cccc(c1)CNC(=O)[C@@H]1CCCN1C2 [Compound 33] | 1.1 µM | > 10 µM | 0.145 µM | 0.224 µM | 0.537 µM | > 10 µM | 0.0513 µM | 8.32 µM | 0.126 µM
O=C1NCCOc2ccc(cc2)-c2ccnc(n2)Nc2ccc(N3CCOCC3)c(c2)CN2CCC1CC2 [Compound 6] | 0.38 µM | > 10 µM | 0.741 µM | 0.195 µM | 0.195 µM | > 10 µM | 0.575 µM | 1.66 µM | 0.105 µM
COc1ccc2cc1CN(C)CCNC(=O)C1CCN(CC1)Cc1cc(cc(N3CCOCC3)c1)Nc1nccc-2n1 [Compound 77] | > 10 µM | > 10 µM | 3.8 µM | > 10 µM | > 10 µM | > 10 µM | > 10 µM | > 10 µM | > 10 µM
O=C(NC1CCCCC1)c1ccc2cc1CN1CCC[C@H]1C(=O)NCc1cccc(c1)-c1ccnc(n1)N2 [Compound 41] | > 10 µM | > 10 µM | 0.263 µM | > 10 µM | > 10 µM | > 10 µM | 2.29 µM | > 10 µM | 3.89 µM
CN(C)CCNCc1cc2cc(c1)Nc1nccc(n1)-c1cccc(c1)CNC(=O)[C@@H]1CCCN1C2 [Compound 31] | 1.78 µM | > 10 µM | 0.11 µM | 5.01 µM | 0.933 µM | > 10 µM | 2.24 µM | > 10 µM | 1.02 µM
CN1CCCNC(=O)[C@@H]2CCCN2Cc2cccc(c2)Nc2nccc(n2)-c2ccc(cc2)C1 [Compound 173] | > 10 µM | > 10 µM | > 10 µM | > 10 µM | > 10 µM | > 10 µM | > 10 µM | > 10 µM | > 10 µM
CN1CCNC(=O)CN2CCN(CC2)Cc2cc(cc(N3CCOCC3)c2)Nc2nccc(n2)-c2ccc(cc2)C1 [Compound 135] | > 10 µM | > 10 µM | 4.37 µM | > 10 µM | > 10 µM | > 10 µM | 9.77 µM | > 10 µM | > 10 µM
CN1CCNC(=O)C2CCN(CC2)Cc2cc(cc(N3CCOCC3)c2)Nc2nccc(n2)-c2ccc(cc2)C1 [Compound 68] | > 10 µM | > 10 µM | 5.89 µM | > 10 µM | > 10 µM | > 10 µM | 7.59 µM | > 10 µM | 8.13 µM
CC(C)Nc1cc2cc(c1)Nc1nccc(n1)-c1ccc(cc1)CN(C)CCNC(=O)[C@@H]1CCCN1C2 [Compound 153] | > 10 µM | > 10 µM | 3.24 µM | > 10 µM | 2.82 µM | > 10 µM | 5.75 µM | > 10 µM | 5.5 µM
COc1ccc2cc1CN(C)CCCNC(=O)C1CCN(CC1)Cc1cc(cc(NC(C)C)c1)Nc1nccc-2n1 [Compound 70] | > 10 µM | > 10 µM | > 10 µM | > 10 µM | > 10 µM | > 10 µM | 9.12 µM | 6.03 µM | > 10 µM
